Patent publication US12195427B2, “MASP-2 inhibitors and methods of use” (priority 2018, dated 2025)
Structures can show the parent of a compound that is named as a salt.

Biological target: MASP-2 CCP2-SP (Homo sapiens (Human), UniProt O00187)
Assay: MASP-2 co-crystallization, X-ray crystallography and structure analysis (H-bonds, van der Waals contacts)
Design: van der Waals contact distance, MASP-2 HIS 483 atom CD2 / van der Waals contact distance, MASP-2 HIS 483 atom NE2 / van der Waals contact distance, SER 654 C to compound atom / van der Waals contact distance, SER 654 O to compound atom / van der Waals contact distance, TRP 655 C to compound atom / van der Waals contact distance, MASP-2 GLY 528 atom CA / van der Waals contact distance TRP 655 atom CZ3 / van der Waals contact distance TRP 655 atom N / van der Waals contact distance TRP 655 atom CE3 / van der Waals contact distance GLY 656 atom C / van der Waals contact distance GLY 656 atom CA / van der Waals contact distance GLY 656 atom O / van der Waals contact distance, MASP-2 TYR 607 atom CD1 / van der Waals contact distance, MASP-2 PRO 606 atom O / d(C3,CA1) / d(CA1,N1)2 / d(H4,O1) / d(H4,O2) / d(O1,O2) / d(CA1,O2) / d(CA6,O1) / d(CA6,O2) / d(CA1,C5) / d(O2,H3) / d(N2,C2) / d(CA5,N2) / d(N2,C4) / d(N2,C6) / d(N2,CA3) / d(N2,O3) / d(O4,H2): unit not given beside the values
Details: for van der Waals contact distance GLY 656 atom CA: MASP-2 GLY 656 CA; for H-bond distance to MASP-2 GLY 656 atom O: GLY 656 O; for van der Waals contact distance, TRP 655 C to compound atom / van der Waals contact distance, TRP 655 CA to compound atom: Table A2-12
How it was run: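 First, CCP2-SP constructs with or without a 6His tag are produced in E. coli. Crystals are then soaked once or twice with inhibitor, cryoprotected in 20% glycerol or frozen directly, and diffracted at synchrotron beamlines. Phasing uses molecular replacement with parts of 1Q3X.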

MASP-2 CCP2-SP, sequence (O00187 445-686): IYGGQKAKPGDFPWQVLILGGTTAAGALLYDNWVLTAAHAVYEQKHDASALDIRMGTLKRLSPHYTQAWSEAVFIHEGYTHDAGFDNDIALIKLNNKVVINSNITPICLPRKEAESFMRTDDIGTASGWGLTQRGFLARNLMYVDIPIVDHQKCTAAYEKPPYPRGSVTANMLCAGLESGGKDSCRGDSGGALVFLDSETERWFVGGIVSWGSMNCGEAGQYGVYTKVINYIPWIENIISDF
MASP-2 CCP2-SP, sequence (O00187 364-432 partner): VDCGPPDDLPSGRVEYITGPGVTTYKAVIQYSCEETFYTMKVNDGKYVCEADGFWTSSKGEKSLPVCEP

Cc1c(/N=C/c2ccc(OC(=O)c3ccco3)cc2)c(=O)n(-c2ccccc2)n1C [compound 34]
van der Waals contact distance GLY 656 atom CA (Table A2-13): 3.72

C[C@H](NC(=O)[C@H]1C[C@H](c2ccccc2)CN1)C(=O)NCc1ccc(N)nc1 [compound 1012]
H-bond distance to MASP-2 ASP 627 atom OD2 (Table A1 (H-Bonds), ASP 627 OD2): 3.18
H-bond distance to MASP-2 GLY 656 atom N (Table A1 (H-Bonds), GLY 656 N): 3.18
H-bond distance to MASP-2 GLY 656 atom O (Table A1 (H-Bonds)): 2.77
H-bond distance to MASP-2 SER 654 atom O (Table A1 (H-Bonds), SER 654 O): 2.93
H-bond distance to MASP-2 SER 657 atom O (Table A1 (H-Bonds), SER 657 O): 2.89
van der Waals contact distance, MASP-2 HIS 483 atom CD2 (Table A2-1): 3.63
van der Waals contact distance, MASP-2 PHE 529 atom CE1 (Table A2-3): 3.75
van der Waals contact distance, MASP-2 PHE 529 atom CE2 (Table A2-3): 3.78
van der Waals contact distance, MASP-2 PRO 606 atom CG (Table A2-4): 3.85
van der Waals contact distance, MASP-2 amino acid atom to compound atom (Table A2-5: TYR 607 (CE1, CE2, OH), PRO 608 (CD, CG), SER 611 (CA)): 3.88
van der Waals contact distance, MASP-2 amino acid atom to compound atom (Table A2-6: SER 611 (CB, OG), ASP 627 (CG, OD1, OD2), SER 628 (C, CA)): 3.6
van der Waals contact distance, MASP-2 amino acid atom to compound atom (Table A2-7: SER 628 (CB, O, OG)): 3.53
van der Waals contact distance, MASP-2 amino acid atom to compound atom (Table A2-9, ARG 630, AA atoms CG, CZ): 3.83
van der Waals contact distance, TRP 655 C to compound atom: 3.8
van der Waals contact distance, TRP 655 CA to compound atom: 3.36
van der Waals contact distance GLY 656 atom CA (Table A2-13): 3.73

C[C@H](NC(=O)[C@H](N)CCc1ccccc1)C(=O)NCc1cc(Cl)ccc1O [compound 1031, (R)-2-Amino-N—((S)-1-((5-chloro-2-hydroxybenzyl)amino)-1-oxopropan-2-yl)-4-phenylbutanamide Hydrochloride]
H-bond distance to MASP-2 ARG 630 atom NH1 (second bond) (Table A1 (H-Bonds), ARG 630 NH1): 2.83
H-bond distance to MASP-2 GLY 656 atom O (Table A1 (H-Bonds)): 2.67
van der Waals contact distance, MASP-2 HIS 483 atom CD2 (Table A2-1): 3.57
van der Waals contact distance, MASP-2 HIS 483 atom CE1 (Table A2-1): 3.62
van der Waals contact distance, MASP-2 HIS 483 atom NE2 (Table A2-1): 3.17
van der Waals contact distance, MASP-2 PHE 529 atom CE2 (Table A2-3): 3.75
van der Waals contact distance, MASP-2 TYR 607 atom CD1 (Table A2-4): 3.85
van der Waals contact distance, MASP-2 amino acid atom to compound atom (Table A2-9 second part, ARG 630, AA atoms N, NE, NH1, Hydrochloride): 3.34
van der Waals contact distance, VAL 653 CG1 to compound atom (Table A2-11): 3.58
van der Waals contact distance, SER 654 C to compound atom (Table A2-11, Hydrochloride): 3.56
van der Waals contact distance, TRP 655 C to compound atom (Hydrochloride): 3.26
van der Waals contact distance, TRP 655 CA to compound atom (Hydrochloride): 3.64
van der Waals contact distance GLY 656 atom C (Table A2-13, MASP-2 GLY 656 C): 3.61
van der Waals contact distance TRP 655 atom CE3 (Table A2-13, MASP-2 TRP 655 CE3, compound atom in line below): 3.49
van der Waals contact distance TRP 655 atom N (Table A2-13, MASP-2 TRP 655 N): 3.28
